# Key:
# Apolipoprotein L1 = Apolipoprotein L1 (Homo sapiens, UniProt O14791); assay: Inhibition of APOL1 G1 variant in human HEK293-T-REx cells measured by Thallium assay; assay type: cell-based
# [1] = test system: Trypanosoma brucei brucei; assay: Antitrypanosomal activity against Trypanosoma brucei brucei assessed as trypanosome lysis using recombinant APOL1 protein G1 variant and measured by Alamar blue based fluorescene assay; assay type: functional, organism-based
Compound,IC50 (Apolipoprotein L1) [nM],IC50 [1] [nM]
O=C(CCc1c(-c2ccc(F)cc2)[nH]c2c(F)cc(F)cc12)N[C@@H]1C(=O)NC[C@@H]1O,< 250,< 250
N#Cc1ccc(-c2[nH]c3c(F)cc(F)cc3c2CCC(=O)N[C@H]2CCNC2=O)cc1,< 250,< 250
Cc1cccc2c(CCC(=O)N[C@@H]3C(=O)NC[C@H]3O)c(-c3ccccc3)[nH]c12,< 250,–
O=C(CCc1c(-c2ccc(F)cc2)[nH]c2c(F)c(F)c(F)cc12)N[C@@H]1C(=O)NC[C@H]1O,< 250,–
O=C(CCc1c(-c2ccc(F)cc2)[nH]c2c(F)cc(Br)cc12)N[C@H]1CCNC1=O,< 250,< 250
COc1cc(F)cc2c(CCC(=O)N[C@H]3CCNC3=O)c(-c3ccc(F)cc3)[nH]c12,250,–
O=C(CCc1c(-c2ccc(F)cc2)[nH]c2c(F)cc(Cl)cc12)N[C@H]1CCNC1=O,< 250,–
O=C(CCc1c(-c2ccccc2)[nH]c2c(F)cc(F)cc12)N[C@@H]1C(=O)NC[C@H]1O,< 250,< 250
COc1ccc2[nH]c(-c3ccc(F)cc3)c(CCC(=O)N[C@H]3CCNC3=O)c2c1,> 1000,–
O=C(CCc1c(-c2ccccc2)[nH]c2c(F)cccc12)N[C@H]1CCNC1=O,250,–
CC(CC(=O)N[C@H]1CCNC1=O)c1c(-c2ccc(F)cc2)[nH]c2c(F)cc(F)cc12 (some centres undefined),> 1000,–
O=C(N[C@H]1CCNC1=O)[C@H](O)Cc1c(-c2ccccc2)[nH]c2c(F)cc(F)cc12,> 1000,–
O=C(CCc1c(-c2ccc(F)cc2)[nH]c2cc(O)ccc12)N[C@H]1C(=O)NC[C@@H]1O,> 1000,–
O=C(CCc1c(-c2ccccc2)[nH]c2c(C3=CCOC3)cccc12)N[C@@H]1C(=O)NC[C@H]1O,> 1000,–
CC(CC(=O)N[C@@H]1C(=O)NC[C@H]1O)c1c(-c2ccc(F)cc2)[nH]c2c(F)cc(F)cc12 (some centres undefined),> 1000,–
C[C@@H](Cc1c(-c2ccc(F)cc2)[nH]c2c(F)cc(F)cc12)C(=O)N[C@@H]1C(=O)NC[C@H]1O,250,–
O=C(CSc1c(-c2ccc(F)cc2)[nH]c2ccccc12)N[C@@H]1C(=O)NC[C@H]1O,< 250,–
O=C(CCc1c(-c2ccc(F)cc2)[nH]c2c(F)cc(F)cc12)N[C@H]1C(=O)NC[C@@H]1O,250,–
O=C(CCc1c(-c2ccc(OC(F)F)cc2)[nH]c2ccccc12)N[C@@H]1C(=O)NC[C@H]1O,< 250,–
O=C(CCc1c(-c2ccc(F)cc2)[nH]c2c(F)cc(F)cc12)NC1CC2(CC2)NC1=O (centres undefined),> 1000,–
O=C(CCc1c(-c2ccc(OC(F)F)cc2)[nH]c2c(F)cc(F)cc12)N[C@H]1CCNC1=O,< 250,< 250
O=C(CCc1c(-c2ccc(F)cc2)[nH]c2c(F)cc(F)cc12)N[C@H]1C[C@@H](CF)NC1=O,> 1000,–
O=C(CCc1c(-c2ccc(F)cc2)[nH]c2ccc(Cl)cc12)N[C@@H]1C(=O)NC[C@H]1O,< 250,–
Cc1c(F)ccc2c(CCC(=O)N[C@@H]3C(=O)NC[C@H]3O)c(-c3ccc(F)cc3)[nH]c12,< 250,–
O=C(CCc1c(-c2ccc(F)cc2)[nH]c2c(F)cc(F)cc12)N[C@H]1C[C@H](CO)NC1=O,> 1000,> 1000

Compound,IC50 (Apolipoprotein L1) [nM],IC50 [1] [nM]
O=C(CCc1c(-c2ccc(F)cc2)[nH]c2cc(F)c(F)cc12)N[C@@H]1C(=O)NC[C@H]1O,< 250,–
O=C(N[C@@H]1C(=O)NC[C@H]1O)[C@H](O)Cc1c(-c2ccc(F)cc2)[nH]c2c(F)cc(F)cc12,> 1000,–
O=C(CCc1c(-c2ccc(F)cc2)[nH]c2c(F)c(F)ccc12)N[C@H]1CCNC1=O,250,–
Cc1cc(F)ccc1-c1[nH]c2ccccc2c1CCC(=O)N[C@@H]1C(=O)NC[C@H]1O,250,–
Cc1c(F)ccc2c(CCC(=O)N[C@@H]3C(=O)NC[C@H]3O)c(-c3ccccc3)[nH]c12,< 250,–
CC(C)c1cccc2c(CCC(=O)N[C@@H]3C(=O)NC[C@H]3O)c(-c3ccccc3)[nH]c12,250,–
C=C(C)c1cccc2c(CCC(=O)N[C@@H]3C(=O)NC[C@H]3O)c(-c3ccccc3)[nH]c12,250,–
CC1C[C@H](NC(=O)CCc2c(-c3ccc(F)cc3)[nH]c3c(F)cc(F)cc23)C(=O)N1 (some centres undefined),250,250
O=C(CCc1c(-c2ccc(F)cc2)[nH]c2c(Cl)cc(F)cc12)N[C@H]1CCNC1=O,< 250,–
C[C@H]1CNC(=O)[C@H]1NC(=O)CCc1c(-c2ccc(F)cc2)[nH]c2c(F)cc(F)cc12,> 1000,–
O=C(CCc1c(-c2ccc(F)cc2)[nH]c2c(F)cc(F)cc12)N[C@@H]1CCNC1=O,250,< 250
C[C@@H](Cc1c(-c2ccc(F)cc2)[nH]c2c(F)cc(F)cc12)C(=O)N[C@H]1CCNC1=O,> 1000,–
O=C(CCc1c(-c2ccccc2)[nH]c2c(F)cc(F)cc12)N[C@H]1CCNC1=O,< 250,–
O=C(CCc1c(-c2ccccc2)[nH]c2c(Cl)cc(F)cc12)N[C@@H]1C(=O)NC[C@H]1O,< 250,–
Cc1ccc(-c2[nH]c3c(F)cc(F)cc3c2CCC(=O)N[C@@H]2C(=O)NC[C@H]2O)cc1,< 250,–
O=C(CCc1c(-c2ccccc2)[nH]c2c(C3CC3)cccc12)N[C@@H]1C(=O)NC[C@H]1O,< 250,–
O=C(CCc1c(-c2ccc(F)cc2)[nH]c2c(F)cc(F)cc12)N[C@H]1C[C@@H](CO)NC1=O,> 1000,> 1000
O=C(CCc1c(-c2ccc(F)cc2)[nH]c2c(F)cc(Cl)cc12)N[C@@H]1C(=O)NC[C@H]1O,< 250,< 250
O=C1C[C@H](NC(=O)CCc2c(-c3ccc(F)cc3)[nH]c3c(F)cc(F)cc23)C(=O)N1,250,250
N#Cc1cc(F)c2[nH]c(-c3ccc(F)cc3)c(CCC(=O)N[C@H]3CCNC3=O)c2c1,> 1000,> 1000
O=C(CCc1c(-c2ccc(F)cc2)[nH]c2ccccc12)N[C@H]1C(=O)NC[C@H]1O,250,–
O=C(CCc1c(-c2ccccc2)[nH]c2c(Cl)cccc12)N[C@@H]1C(=O)NC[C@H]1O,< 250,–
Cc1cccc2c(CCC(=O)N[C@@H]3C(=O)NC[C@H]3O)c(-c3ccc(F)cc3)[nH]c12,< 250,–
Cc1ccc(-c2[nH]c3c(F)cc(F)cc3c2CCC(=O)N[C@H]2CCNC2=O)cc1,< 250,–
O=C(CCc1c(-c2ccc(F)cc2)[nH]c2c(F)cc(OC(F)F)cc12)N[C@@H]1C(=O)NC[C@H]1O,< 250,–

Compound,IC50 (Apolipoprotein L1) [nM],IC50 [1] [nM]
COc1cccc2c(CCC(=O)N[C@H]3CCNC3=O)c(-c3ccc(F)cc3)[nH]c12,> 1000,–
O=C(CCc1c(-c2ccc(F)cc2)[nH]c2c(F)cc(F)cc12)N[C@H]1C[C@H](CF)NC1=O,> 1000,–
O=C(CCc1c(-c2ccc(F)cc2)[nH]c2c(F)cc(F)cc12)N[C@H]1CCNC1=O,< 250,< 250
O=C(CCc1c(-c2ccc(F)cc2)[nH]c2ccccc12)N[C@H]1C(=O)NC[C@@H]1O,> 1000,–
O=C1NC[C@@H](O)[C@@H]1NC(=O)[C@@H](O)Cc1c(-c2ccc(F)cc2)[nH]c2c(F)cc(F)cc12,> 1000,–
O=C1C[C@@H](NC(=O)CCc2c(-c3ccc(F)cc3)[nH]c3c(F)cc(F)cc23)C(=O)N1,250,250
C=Cc1cccc2c(CCC(=O)N[C@@H]3C(=O)NC[C@H]3O)c(-c3ccccc3)[nH]c12,< 250,–
O=C(CCc1c(-c2ccc(F)cc2)[nH]c2ccccc12)N[C@@H]1C(=O)NC[C@@H]1O,> 1000,–
O=C(CCc1c(-c2ccccc2)[nH]c2c(C3CCOC3)cccc12)N[C@@H]1C(=O)NC[C@H]1O (some centres undefined),250,–
O=C(CCc1c(-c2ccccc2)[nH]c2c(C(F)(F)F)cc(F)cc12)N[C@@H]1C(=O)NC[C@H]1O,< 250,–
CC(=O)O[C@@H]1CNC(=O)[C@H]1NC(=O)CCc1c(-c2ccc(F)cc2)[nH]c2c(F)cc(F)cc12,> 1000,–
O=C(CCc1c(-c2ccc(F)cc2)[nH]c2c(F)cc(Cl)cc12)N[C@@H]1CCNC1=O,250,–
O=C(CCc1c(-c2ccc(F)cc2)[nH]c2c(F)cc(F)cc12)N[C@H]1C(=O)NC[C@H]1O,250,–
O=C(CCc1c(-c2ccc(Cl)cc2)[nH]c2c(Cl)cccc12)N[C@@H]1C(=O)NC[C@H]1O,< 250,–
CC(C)(O)c1cccc2c(CCC(=O)N[C@@H]3C(=O)NC[C@H]3O)c(-c3ccccc3)[nH]c12,250,–
Cc1cc(F)c2[nH]c(-c3ccc(F)cc3)c(CCC(=O)N[C@@H]3C(=O)NC[C@H]3O)c2c1,< 250,< 250
CC1(NC(=O)CCc2c(-c3ccc(F)cc3)[nH]c3c(F)cc(F)cc23)CCNC1=O (centres undefined),250,< 250
Cc1cc(F)cc2c(CCC(=O)N[C@H]3CCNC3=O)c(-c3ccc(F)cc3)[nH]c12,< 250,–
Cc1cc(F)c2[nH]c(-c3ccc(F)cc3)c(CCC(=O)N[C@H]3CCNC3=O)c2c1,250,–
O=C(CCc1c(-c2ccc(F)cc2)[nH]c2c(C(F)F)cc(F)cc12)N[C@@H]1C(=O)NC[C@H]1O,< 250,–
Cc1ccc(-c2[nH]c3c(F)cc(F)cc3c2CCC(=O)N[C@@H]2CCNC2=O)cc1,< 250,–
N#Cc1cccc(-c2[nH]c3ccc(F)cc3c2CCC(=O)N[C@H]2CCNC2=O)c1,> 1000,–
O=C(CCc1c(-c2ccc(F)cc2)[nH]c2c(C(F)(F)F)cccc12)N[C@@H]1C(=O)NC[C@H]1O,< 250,–
